Legend:
GPR17 [1] = target: T1, GPR17 (Homo sapiens, UniProt Q13304); assay: Calcium mobilization functional assay (GPR17 Ca2+ assay); format: cell-based; design: host or cells: Flp-In T-REx CHO; conditions: CHO hGPR17 cells, inhibition of 50 nM MDL29,951, Calcium 5 dye, FLIPR; read-out: Ca2+ assay pIC50 (converted)
Outline: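 pIC50 values were fitted with a 4-parameter logistic curve. They reflect test-compound inhibition of cytosolic Ca2+ release evoked by 50 nM MDL29,951, tracked as Calcium 5 fluorescence at room temperature. Cells were CHO Flp-In T-REx stably carrying human GPR17, induced with doxycycline 1 μg/mL for 16-20 h.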

GPR17 [2] = target: T1, GPR17; assay: cAMP accumulation functional assay (HTRF, Schild analysis); format: cell-based; design: host or cells: Flp-In T-REx CHO; conditions: CHO hGPR17 cells, Schild analysis vs MDL29,951, 5 μM forskolin, read-out: cAMP assay pA2 (converted)
Experimental: Flp-In T-REx CHO cells stably expressing human GPR17 receptor (CHO hGPR17) from Evi Kostenis' lab (Bonn University, Germany) were cultured at 37° C. in a humidified atmosphere of 5% CO2. Cells were grown in DMEM with Nutrient Mixture F-12 supplemented with hygromycin B (500 μg/mL) and blasticidin (30 μg/mL). Expression from the Flp-In locus was induced by treatment with doxycycline (1 μg/mL) for 16-20 h prior assays.
GPR17 activation can also recruit Gi-type G-protein signaling, resulting in a decrease of intracellular cyclic adenosine monophosphate (cAMP). Intracellular cAMP changes can be measured using the HTRF cAMP dynamic assay kit from CisBio (Codolet, France). Using homogenous time-resolved fluorescence technology (HTRF), the assay is based on competition between native cAMP produced by cells and cAMP labelled with the dye d2. The tracer binding was determined by an anti-cAMP antibody labeled with cryptate.
CHO hGPR17 were detached with PBS containing EDTA and dispatched in black 384-well plates with 5,000 cells per well. Cells were first incubated for 30 minutes at room temperature in HBSS Hepes (pH 7.4) containing vehicle or varying concentrations of test GPR17 antagonist/inverse agonist compounds. […] After 60 minutes incubation at room temperature, the reaction is terminated and the cells lysed by adding the d2 detection reagent and the cryptate reagent in 10 μL lysis buffer each according to manufacturer's instructions. After 60 minutes incubation, changes in cAMP concentrations are measured according to manufacturer's instructions using an Envision plate reader with laser excitation. All incubations were performed in duplicate. Data was analyzed using GraphPad Prism software using the 4-parameter logistic equation to measure MDL29,951 pEC50s in absence and presence of GPR17 antagonist/inverse agonist test compounds. Dose ratio (DR) were plotted against antagonist concentrations and Schild analysis provided estimated affinity pA2 of GPR17 antagonist/inverse agonist test compounds.
The activities of the Example compounds tested are depicted in the table below. The activity ranges A, B and C refer to pA2 values in the cAMP assay as follows: “A”: pA2<7.5, “B”: pA2 7.5<x≤8.5, “C”: pA2>8.5.

T1 sequence (Q13304 whole entry): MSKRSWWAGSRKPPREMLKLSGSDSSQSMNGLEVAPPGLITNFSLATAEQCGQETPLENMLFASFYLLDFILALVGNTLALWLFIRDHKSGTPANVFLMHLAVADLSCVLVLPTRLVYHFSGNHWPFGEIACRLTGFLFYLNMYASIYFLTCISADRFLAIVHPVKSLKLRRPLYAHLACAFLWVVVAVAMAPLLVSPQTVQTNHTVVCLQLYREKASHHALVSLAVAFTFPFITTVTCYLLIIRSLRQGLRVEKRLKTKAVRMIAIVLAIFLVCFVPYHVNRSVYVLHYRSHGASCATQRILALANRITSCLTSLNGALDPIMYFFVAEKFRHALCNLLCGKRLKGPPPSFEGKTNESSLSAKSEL

SMILES | IC50 (GPR17 [1]) | Kb (GPR17 [2])
COCCCc1cc(F)c(NS(=O)(=O)c2c[nH]c3cc(Cl)ccc23)nc1F [Compound I-253, 6-chloro-N-[3,6-difluoro-5-(3-methoxypropyl)pyridin-2-yl]-1H-indole-3-sulfonamide] | < 3.16 nM | < 3.16 nM
O=S(=O)(Nc1ccc2nonc2c1)c1c[nH]c2cc(Cl)ccc12 [Compound I-201, N-(2,1,3-benzoxadiazol-5-yl)-6-chloro-1H-indole-3-sulfonamide] | > 31.6 nM | < 3.16 nM
O=S(=O)(Nc1cccc2nonc12)c1c[nH]c2cc(Cl)ccc12 [Compound I-216, N-(2,1,3-benzoxadiazol-4-yl)-6-chloro-1H-indole-3-sulfonamide] | 3.16 to 31.6 nM | 3.16 to 31.6 nM
O=S(=O)(Nc1cc(F)c(OC(F)F)cc1F)c1c[nH]c2nc(C(F)F)ccc12 [Compound I-363, N-[4-(difluoromethoxy)-2,5-difluorophenyl]-6-(difluoromethyl)-1H-pyrrolo[2,3-b]pyridine-3-sulfonamide] | 3.16 to 31.6 nM | 3.16 to 31.6 nM
COc1cc(CC#N)cnc1NS(=O)(=O)c1c[nH]c2cc(Cl)ccc12 [Compound I-194, 6-chloro-N-[5-(cyanomethyl)-3-methoxypyridin-2-yl]-1H-indole-3-sulfonamide] | < 3.16 nM | < 3.16 nM
O=S(=O)(Nc1ccc(I)cc1F)c1c[nH]c2nc(Br)ccc12 [Compound I-104, 6-bromo-N-(2-fluoro-4-iodophenyl)-1H-pyrrolo[2,3-b]pyridine-3-sulfonamide] | < 3.16 nM | < 3.16 nM
O=S(=O)(Nc1cccc2nsnc12)c1c[nH]c2nc(Cl)ccc12 [Compound I-93, N-(2,1,3-benzothiadiazol-4-yl)-6-chloro-1H-pyrrolo[2,3-b]pyridine-3-sulfonamide] | 3.16 to 31.6 nM | 3.16 to 31.6 nM
N#Cc1ccc(NS(=O)(=O)c2c[nH]c3c2ccc2ccccc23)cc1 [Compound I-159, N-(4-cyanophenyl)-1H-benzo[g]indole-3-sulfonamide] | 3.16 to 31.6 nM | 3.16 to 31.6 nM
N#Cc1ccc(NS(=O)(=O)c2c[nH]c3cc(C4CC4)ccc23)cc1 [Compound I-133, N-(4-cyanophenyl)-6-cyclopropyl-1H-indole-3-sulfonamide] | < 3.16 nM | 3.16 to 31.6 nM
O=S(=O)(Nc1cccc2c1OCO2)c1c[nH]c2cc(Cl)ccc12 [Compound I-25, N-(1,3-benzodioxol-4-yl)-6-chloro-1H-indole-3-sulfonamide] | < 3.16 nM | 3.16 to 31.6 nM
O=S(=O)(Nc1cccc(F)c1Cl)c1c[nH]c2nc(Br)ccc12 [Compound I-83, 6-bromo-N-(2-chloro-3-fluoorphenyl)-1H-pyrrolo[2,3-b]pyridine-3-sulfonamide] | 3.16 to 31.6 nM | 3.16 to 31.6 nM
O=S(=O)(Nc1cccc2nsnc12)c1c[nH]c2cc(C(F)(F)F)ccc12 [Compound I-186, N-(2,1,3-benzothiadiazol-4-yl)-6-(trifluoromethyl)-1H-indole-3-sulfonamide] | 3.16 to 31.6 nM | 3.16 to 31.6 nM
COc1nc(NS(=O)(=O)c2c[nH]c3c2ccc2ccccc23)c(F)cc1Cl [Compound I-329, N-(5-chloro-3-fluoro-6-methoxypyridin-2-yl)-1H-benzo[g]indole-3-sulfonamide] | < 3.16 nM | < 3.16 nM
N#Cc1ccc(NS(=O)(=O)c2c[nH]c3cc(Br)ccc23)cc1 [Compound I-134, 6-bromo-N-(4-cyanophenyl)-1H-indole-3-sulfonamide] | < 3.16 nM | < 3.16 nM
COc1cc(C#N)c(F)cc1NS(=O)(=O)c1c[nH]c2nc(Cl)ccc12 [Compound I-292, 6-chloro-N-(4-cyano-5-fluoro-2-methoxyphenyl)-1H-pyrrolo[2,3-b]pyridine-3-sulfonamide] | 3.16 to 31.6 nM | 3.16 to 31.6 nM
COc1cc(NS(=O)(=O)c2c[nH]c3cc(Cl)ccc23)ncc1Cl [Compound I-60, 6-chloro-N-(5-chloro-4-methoxypyridin-2-yl)-1H-indole-3-sulfonamide] | > 31.6 nM | > 31.6 nM
CC(C)c1ccc2c(S(=O)(=O)Nc3ccc(C#N)cc3F)c[nH]c2c1 [Compound I-170, N-(4-cyano-2-fluorophenyl)-6-(propan-2-yl)-1H-indole-3-sulfonamide] | < 3.16 nM | < 3.16 nM
CCOC(=O)C1CC1c1cc(F)c(NS(=O)(=O)c2c[nH]c3cc(Cl)ccc23)nc1F (centres unmarked) [Compound I-359, ethyl 2-(6-{[(6-chloro-1H-indol-3-yl)sulfonyl]amino}-2,5-difluoropyridin-3-yl)cyclopropanecarboxylate] | 3.16 to 31.6 nM | 3.16 to 31.6 nM

Second part, the compound after the results:

IC50 (GPR17 [1]) | Kb (GPR17 [2]) | SMILES
< 3.16 nM | 3.16 to 31.6 nM | COc1nc(NS(=O)(=O)c2c[nH]c3cc(Cl)c(F)cc23)c(F)cc1Cl [Compound I-339, 6-chloro-N-(5-chloro-3-fluoro-6-methoxypyridin-2-yl)-5-fluoro-1H-indole-3-sulfonamide]
3.16 to 31.6 nM | < 3.16 nM | N#Cc1ccc2c(S(=O)(=O)Nc3cc(F)c(Cl)cc3F)c[nH]c2c1 [Compound I-277, N-(4-chloro-2,5-difluorophenyl)-6-cyano-1H-indole-3-sulfonamide]
3.16 to 31.6 nM | < 3.16 nM | O=S(=O)(Nc1nc(F)c(Cl)cc1F)c1c[nH]c2cc(Cl)ccc12 [Compound I-199, 6-chloro-N-(5-chloro-3,6-difluoropyridin-2-yl)-1H-indole-3-sulfonamide]
3.16 to 31.6 nM | < 3.16 nM | O=S(=O)(Nc1cc(F)c(Cl)cc1F)c1c[nH]c2c(OCC(F)F)c(Cl)ccc12 [Compound I-262, 6-chloro-N-(4-chloro-2,5-difluorophenyl)-7-(2,2-difluoroethoxy)-1H-indole-3-sulfonamide]
3.16 to 31.6 nM | 3.16 to 31.6 nM | N#Cc1cc(NS(=O)(=O)c2c[nH]c3cc(Cl)ccc23)c2c(c1)OC(F)(F)O2 [Compound I-132, 6-chloro-N-(6-cyano-2,2-difluoro-1,3-benzodioxol-4-yl)-1H-indole-3-sulfonamide]
3.16 to 31.6 nM | < 3.16 nM | N#Cc1ccc(NS(=O)(=O)c2c[nH]c3cc(-c4cccs4)ccc23)c(F)c1 [Compound I-235, N-(4-cyano-2-fluorophenyl)-6-(thiophen-2-yl)-1H-indole-3-sulfonamide]
> 31.6 nM | > 31.6 nM | O=S(=O)(Nc1cc(F)c(Cl)cc1F)c1c[nH]c2cc(-c3ccsc3)ccc12 [Compound I-236, N-(4-chloro-2,5-difluorophenyl)-6-(thiophen-3-yl)-1H-indole-3-sulfonamide]
3.16 to 31.6 nM | 3.16 to 31.6 nM | O=S(=O)(Nc1ccc(Cl)cc1F)c1c[nH]c2c1ccc1cccnc12 [Compound I-65, N-(4-chloro-2-fluorophenyl)-1H-pyrrolo[3,2-h]quinoline-3-sulfonamide]
3.16 to 31.6 nM | 3.16 to 31.6 nM | Cc1noc(C)c1-c1c(Cl)ccc2c(S(=O)(=O)Nc3cc(F)c(Cl)cc3F)c[nH]c12 [Compound I-250, 6-chloro-N-(4-chloro-2,5-difluorophenyl)-7-(3,5-dimethyl-1,2-oxazol-4-yl)-1H-indole-3-sulfonamide]
< 3.16 nM | < 3.16 nM | Cc1cc(F)c(NS(=O)(=O)c2c[nH]c3cc(Cl)ccc23)cc1F [Compound I-270, 6-chloro-N-(2,5-difluoro-4-methylphenyl)-1H-indole-3-sulfonamide]
3.16 to 31.6 nM | < 3.16 nM | O=S(=O)(Nc1cc(F)c(Cl)cc1F)c1c[nH]c2c(F)c(Cl)ccc12 [Compound I-242, 6-chloro-N-(4-chloro-2,5-difluorophenyl)-7-fluoro-1H-indole-3-sulfonamide]
3.16 to 31.6 nM | 3.16 to 31.6 nM | O=c1[nH]c2cccc(NS(=O)(=O)c3c[nH]c4cc(Cl)ccc34)c2o1 [Compound I-301, 6-chloro-N-(2-oxo-2,3-dihydro-1,3-benzoxazol-7-yl)-1H-indole-3-sulfonamide]
< 3.16 nM | < 3.16 nM | N#Cc1cc(F)c(NS(=O)(=O)c2c[nH]c3cc(C(F)(F)F)ccc23)cc1F [Compound I-184, N-(4-cyano-2,5-difluorophenyl)-6-(trifluoromethyl)-1H-indole-3-sulfonamide]

Source: patent US12071404B2, “Aza (indole)-, benzothiophene-, and benzofuran-3-sulfonamides” (UCB Pharma GmbH, priority 2016, dated 2024)
